Structures are written as SMILES. Where a SMILES comes first, the peptide text is derived from it. Bridges are numbered along the chain shown (N, C = ends).

The source of these data is patent US10034836B2, “Formulations of guanylate cyclase C agonists and methods of use” (SYNERGY PHARMACEUTICALS, INC., priority 2008, dated 2018).

The nature of data set [1]: Stability in simulated intestinal fluid (SIF), biological activity by cGMP synthesis in T84 cells. The class given is in vitro ADME. As to the method:
FIG. 2A: Biological activity of SP-304 incubated for varying lengths of time in simulated intestinal fluid (SIF). SP-304 samples were incubated for 0, 30, 60, 90, 150, and 300 min, respectively, and then tested for their ability to stimulate cGMP synthesis in T84 cells. The cGMP stimulation activity in the sample at 0 min of incubation time in SIF was taken as 100% biological activity. The activities of the other SP-304 incubation samples were calculated as the percentage of activity relative to that of the 0 min sample. Data points shown are the average of triplicate measurements±SD.
(§1) FIG. 7A: Biological activity of SP-333 incubated for varying lengths of time in simulated intestinal fluid (SIF). SP-333 samples incubated for 0, 5, 10, 30, 60, and 120 min, respectively, were tested for their ability to stimulate cGMP synthesis in T84 cells. The control sample marked as C120 was produced by incubating SP-333 with heat inactivated SIF for 120 min. Samples from the incubations were removed and heated at 95° C. for 5 min to inactivate digestive enzymes and then used to stimulate cyclic GMP synthesis in T84 cells. The cGMP stimulation activity in the sample at 0 min of incubation time in SIF was taken as 100% biological activity. The activities of the other SP-304 incubation samples were calculated as the percentage of activity relative to that of the 0 min sample. Data points shown are the average of triplicate measurements±SD.
as §1, with “FIG. 7B:” for “FIG. 7A:”, “of SP-332” for “of SP-333”, “incubating SP-332” for “incubating SP-333”
FIG. 7C: Biological activity of SP-304 incubated for varying lengths of time in simulated intestinal fluid (SIF). SP-304 samples incubated for 0, 10, and 60 min, respectively, were tested for their ability to stimulate cGMP synthesis in T84 cells. The control samples marked as C0 and C60 were produced by incubating SP-304 with heat inactivated SIF for 0 and 60 min, respectively. Samples from the incubations were removed and heated at 95° C. for 5 min to inactivate digestive enzymes and then used to stimulate cyclic GMP synthesis in T84 cells. The cGMP stimulation activity in the sample at 0 min of incubation time in SIF was taken as 100% biological activity. The activities of the other SP-304 incubation samples were calculated as the percentage of activity relative to that of the 0 min sample. […]
FIGS. 7G-1-7G-5: Incubation of SP-333 with SIF for 2, 6, 12 and 24 hrs. Effect of SIF digestion on the activity of SP-333 in T84 stimulation assay was determined (FIG. 7G-1) and samples were also analyzed by HPLC (FIGS. 7G2-5). […]
The stability of SP-304 was also evaluated after incubation with simulated intestinal fluid (SIF) by measuring its biological activity and by HPLC analyses (FIGS. 2A & 2B). […]

Data set [2] in a line: Stability in simulated intestinal fluid (SIF), HPLC analysis. The class given is in vitro ADME. As for the experimental part:
FIG. 2B: HPLC chromatographic spectra of SP-304 samples after incubation with: (A) heat-inactivated SIF for 300 minutes, or (B) SIF for 120 minutes. The arrows show the elution position of SP-304.
FIGS. 7D-1-7D-2: HPLC chromatograms of SP-304 incubated for 0 min in SIF (FIG. 7D-1) and 60 min in SIF (FIG. 7D-2), respectively. The arrows indicate the elution positions of the parent SP-304 peptides. […] These new peptide peaks represent degradation products of SP-304.
FIGS. 7E-1-7-E2: HPLC chromatograms of SP-332 incubated for 0 min in SIF (FIG. 7E-1) and 120 min in SIF (FIG. 7E-2), respectively. The arrows indicate the elution positions of the parent SP-332 peptides.
FIGS. 7F-1-7F-2: HPLC chromatograms of SP-333 incubated for 0 min in SIF (FIG. 7F-1) and 120 min in SIF (FIG. 7F-2), respectively. The arrows indicate the elution positions of the parent SP-333 peptides.
FIGS. 7G-1-7G-5: Incubation of SP-333 with SIF for 2, 6, 12 and 24 hrs. Effect of SIF digestion on the activity of SP-333 in T84 stimulation assay was determined (FIG. 7G-1) and samples were also analyzed by HPLC (FIGS. 7G2-5). The elution positions of the parent peptide and its metabolites are indicated by arrows.
The physical stability of SP-304 peptide exposed to SIF was evaluated by HPLC using the method described for SGF digestion. […]

Data set [3] deals with cynomolgus monkeys. The data set is described as follows: Repeated oral dose toxicity study of SP-304 in cynomolgus monkeys (14 days). Format: in vivo. As to the method: The primary purpose of this experiment was to evaluate the toxicity and pharmacokinetics of a repeated oral dose of SP-304 in cynomolgus monkeys. […] Monkeys returned to normal stool consistency within 24-48 hours following the last dose of SP-304.

Data set [4] relates to cynomolgus monkeys. The data set is described as follows: Repeated daily oral dose for 28 days in cynomolgus monkeys, stool consistency. The conditions noted are these: cynomolgus monkey, in vivo, 10 mg/kg. As for the experimental part: FIG. 19: Determination of SP-304 dose that produced diarrhea in monkeys. Two groups of monkeys, male and female, were treated with a single dose of SP-304 per day continuously for 28 days (for each group, 0 and 75 mg/kg, n=5; 1, 10 mg/kg, n=4). Stool consistency and bowel frequency were noted every day. Results are presented as cumulative score for 28 days. The scoring used for stool consistency was as follows: 0: No stool, 1: Normal stool, 2: Loose/mushy stool and 3: Diarrhea/watery stool.
Male (n=4) and female (n=4) monkeys were given a daily dose (1 or 10 or 75 mg/kg body weight) of SP-304 repeatedly for 28 days. Effect of treatment on stool consistency was recorded three times a day. […] Therefore, SP-304 was used at 10 mg/kg body weight in the subsequent experiments.

In data set [5] the test system is healthy male and female subjects. The settings on record: in vivo, po.
Data set [6] shares this test system. Put plainly: Phase 1 single ascending oral dose study, safety and tolerability. The conditions noted are these: healthy volunteers.

Turning to `CC(C)C[C@H](NC(=O)[C@@H]1CSSC[C@@H]2NC(=O)[C@H](CC(C)C)NC(=O)[C@H](CCC(=O)O)NC(=O)[C@@H](NC(=O)[C@H](CCC(=O)O)NC(=O)[C@H](CC(=O)O)NC(=O)[C@@H](N)CC(N)=O)CSSC[C@H](NC(=O)[C@H](C)NC(=O)[C@H](C(C)C)NC(=O)[C@H](CC(N)=O)NC(=O)[C@H](C(C)C)NC2=O)C(=O)N[C@@H]([C@@H](C)O)C(=O)NCC(=O)N1)C(=O)O` [SP-304, Asn^1-Asp^2-Glu^3-Cys^4-Glu^5-Leu^6-Cys^7-Val^8-Asn^9-Val^10-Ala^11-Cys^12-Thr^13-Gly^14-Cys^15-Leu^16] (H-NDECELCVNVACTGCL-OH; disulfide 4-12, 7-15), in data set [1], the “loss of potency following digestion with SIF” value is reported as “about 30%” and the “reduction in biological activity after incubation in SIF” value was 30%. Moreover, the “reduction of biological activity following incubation in SIF” value in data set [1] (pH 6) is “about 30%”. For the same molecule, the “HPLC analysis after incubation with heat-inactivated SIF” value in data set [2] was “remained intact”. In addition, the “time to return to normal stool consistency following the last dose” value with cynomolgus monkeys [3] (cynomolgus monkey, in vivo) lay within 24 to 48 h. For the same molecule, in the data set on cynomolgus monkeys [3] (daily dose of 250 mg for 14 consecutive days, cynomolgus monkeys), the “tolerability of repeated oral dose” value is reported as “well tolerated”. In addition, in the data set with cynomolgus monkeys [4], the “effect on stool consistency in females” value is “severe diarrhea consistently”. Further, the “most prevalent adverse event: grade I diarrhea (CTCAE)” value in data set [5] worked out at 12.7%. Moreover, the “severe adverse events (SAEs)” value in data set [6] (0.1 to 48.6 mg single oral dose) is given as “no severe adverse events”. Besides, the “tolerability of single oral dose” value in data set [6] (0.1 to 48.6 mg) is on record as “well-tolerated”.
